In patent US20250032450A1, “[…] INHALABLE FORMULATIONS” (Cybin UK Ltd., priority 2021, published 2025):
Converted amounts (≈) assume the structure as drawn. Where two headings read alike, the source gives them in different places.

How the values were obtained:
[1] = in water; estimated; cited from earlier work
[2] = N,N-Dimethyltryptamine pH-solubility in 0.5M Britton Robinson buffer; format: physicochemical; conditions: aqueous buffer, thermodynamic from solid, read-out: solubility, Real data
Experimental: Prior to adding N,N-dimethyltryptamine, a quantity of NaOH was added to the BR buffer as required to ensure the required pH. The total volume of BR buffer plus required amount of NaOH was 5 ml for each pH tested (pH 4, 5, 6, 7, 8, 9 & 10).

[3] = HMDB; cited from earlier work

| SMILES | pKa of terminal phosphate oxygen atom (first value) [1] | pKa of terminal phosphate oxygen atom (second value) [1] | solubility ([2]; pH 4.05, 25° C.) [mg/mL] | solubility ([2]; pH 4.98, 25° C.) [mg/mL] | solubility ([2]; pH 6.05, 25° C.) [mg/mL] | solubility ([2]; pH 7.08, 25° C.) [mg/mL] | solubility ([2]; pH 8.07, 25° C.) [mg/mL] | solubility ([2]; pH 8.91, 25° C.) [mg/mL] | solubility ([2]; pH 10.01, 25° C.) [mg/mL] | degradation in solution [3] |
| --- | --- | --- | --- | --- | --- | --- | --- | --- | --- | --- |
| CN(C)CCc1c[nH]c2cccc(OP(=O)(O)O)c12 [psilocybin, [3-(2-Dimethylaminoethyl)-1H-indol-4-yl] dihydrogen phosphate] | 1.3 | 6.5 | – | – | – | – | – | – | – | – |
| CN(C)CCc1c[nH]c2ccccc12 [N,N-Dimethyltryptamine] | – | – | 105 (≈ 556 mM) | 126 (≈ 671 mM) | 92.6 (≈ 492 mM) | 68.6 (≈ 364 mM) | 88.4 (≈ 470 mM) | 17.1 (≈ 90.8 mM) | 1.14 (≈ 6.06 mM) | degrades relatively quickly in solution |
